Legend:
[1] = test system: P. falciparum 803 (artemisinin-resistant strain); assay: In vitro antimalarial IC50 assay; format: cell-based, Plasmodium falciparum; details: strain 803, 72 h incubation, Giemsa smears
Procedure: (§1) Blood stages of the laboratory clones P. falciparum 3D7 (sensitive strain), P. falciparum 803 (artemisinin-resistant strain), and P. falciparum Dd2 (chloroquine-resistant strain) were cultured in vitro according to the method of Trager and Jensens with minor modifications ([37]). Briefly, cultures were maintained in O-positive human erythrocytes (RBCs) as host cells at 2% hematocrit and maintained in complete medium (CM) [RPMI-1640 culture medium supplemented with NaHCO3 (2 mg/mL), hypoxanthine (50 µg/mL), HEPES (5.96 mg/mL), albumax II (1%), and gentamicin (40 µg/mL)]. The cultures were diluted to 1% parasitemia and 2% hematocrit in CM and incubated in a humidified atmosphere with 5% O2, 5% CO2, and 90% N2 at 37°C. Prior to experiments, the cultures were highly synchronized for ring stages using 5% sorbitol twice at a 40-h interval. Briefly, ring stage cultures were centrifuged and the pellet was washed once in incomplete medium (ICM, RPMI-1640 without addition). […] The development of the parasite was observed using light microscopy, and parasitemia was determined by counting at least 10,000 RBCs on Giemsa’s solution-stained thin blood smears.
(§2) Highly synchronous ring stage parasites were used to investigate the in vitro antimalarial activity of the peptides. […] Thin blood films stained with Giemsa’s solution were counted under a microscope. […] IC50 was calculated by GraphPad Prism.

[2] = test system: P. falciparum Dd2 (chloroquine-resistant strain); assay: In vitro antimalarial IC50 assay; format: cell-based, Plasmodium falciparum; details: strain Dd2, 72 h incubation, Giemsa smears
Procedure: as §1, §2

Bacillus subtilis (ATCC) = assay: Antimicrobial assay, broth dilution; format: cell-based; details: B. subtilis
Procedure: (§3) Gram-positive bacteria S. aureus, B. subtilis, and Gram-negative E. coli were used in antimicrobial assays. Bacteria were first grown in LB (Luria-Bertani) broth to an absorbance of 0.8 at 600 nm. The antibacterial behavior of the peptides was studied via the agar disc diffusion assay and broth microdilution method ([41], [42]). The agar plates were made by pouring 20 mL of LB broth containing 1.5% agar into 60-mm Petri dishes. Then, a 100-µL bacterial suspension (10^6 CFU/mL) was spread over the LB agar plate. Ten microliters of the 2-mg/mL peptide sample was carefully dropped onto sterile 2-mm diameter paper discs that had been previously attached to the plate. The plates were carefully placed in an incubator at 37°C for 24 hours. If an examined sample had antimicrobial activity, a clear zone was observed around the filter paper representing inhibition of bacterial growth. The MIC was determined by the broth dilution method, and the absorbance value was measured at an optical density at 600 nm (OD600) to determine the inhibition rate of peptides at different concentrations against each bacteria. Then, the MIC at which no visible growth occurred was recorded ([38]). The MIC50 was calculated by GraphPad Prism.

[3] = test system: Escherichia coli (ATCC 25922); assay: Antimicrobial assay, broth dilution; format: cell-based; details: E. coli
Procedure: as §3

[4] = test system: Staphylococcus aureus (ATCC 6538); assay: Antimicrobial assay, broth dilution; format: cell-based; details: S. aureus
Procedure: as §3

[5] = test system: RBCs infected by schizonts of P. falciparum 3D7; assay: Hemolytic activity on RBCs infected by schizonts; format: cell-based, human; details: percoll-purified 3D7 schizonts, 2% hematocrit in PBS
Procedure: To test the hemolytic activity of the peptides against RBCs infected by Plasmodium, schizonts of the P. falciparum 3D7 strain were collected. The parasite culture of mainly schizonts was centrifuged and resuspended to 50% hematocrit. Then, the resuspended culture was carefully laid on top of the gradient with 3 mL 70% and 3 mL 40% percoll-sorbitol solution. After centrifugation at 2,300 × g for 20 min at 20°C, schizonts from the 40/70% interface were collected and washed twice with 10× volume of ICM. The collected parasites were resuspended in PBS to 2% hematocrit for hemolysis assay as described above.

[6] = Acute oral toxicity test in mice; format: in vivo, BALB/c mice; details: for survival number: n = 6, 14 days; for Body weight Day0 / Body weight Day7 / Body weight Day14: n = 6, in g (unit assumed)
Procedure: Mice were housed under standard conditions at a temperature of 24 ± 2°C and a humidity of 50%–80%. Lighting was alternated between day and night every 12 hours. All mouse groups consisted of six animals per cage, and these were fed ad libitum with SPF-grade stock diet and water. All the experimental mice were adapted to the animal room for 1 to 2 weeks before the experiment.
For the acute toxicity test, the mice were divided into four groups. Each group contained six mice. Mice were fasted for 2 hours before feeding with a single oral dose of peptide. The mice in each group were fed with peptide at a single oral dose of 500, 200, and 100 mg/kg body weight. Normal saline (1 mL) was used as control. The general behavior of each mouse was observed continuously for the first 1 hour, then intermittently every 4 hours, and thereafter over a period of 24 hours ([43]).

Procedure for HEK293T cells: (§4) The mammalian cell lines HepG2 and HEK293T were used for cytotoxicity tests. The cells were cultured in Dulbecco’s modified Eagle medium supplemented with 10% fetal bovine serum and 1% penicillin/streptomycin in an incubator at 37°C with 5% CO2. Cells were seeded at a density of 1 × 10^5 cells/mL per well into a 96-well plate overnight and treated with different concentrations of peptides for 48 hours. To analyze the CC50 of peptides, a series of concentrations of peptides (0, 5, 10, 20, 30, 40, 50, 60, and 70 µM) were set to detect their cytotoxic concentrations. Then, 10% CCK-8 solution was added into each well and incubated for another 2 hours. The absorbance was monitored by a microplate reader at 450 nm. PBS was used as a negative control and the inhibition of each drug was normalized to that of the PBS control. CC50 was calculated by GraphPad Prism. Two independent assays with three technical replicates each time were conducted.
Procedure for HepG2 cells: as §4

APRWKFGKRLEKLGRNVFRAA KKALPVIAGYKAL-NH2 [An-cecB]
IC50 [1]: 9.89 µM | IC50 [2]: 12.8 µM | MIC (Bacillus subtilis (ATCC); OD600): 3.75 µM | MIC50 (Bacillus subtilis (ATCC); OD600, GraphPad Prism): 0.85 µM | MIC ([3]; OD600): 3.75 µM | MIC50 ([3]; OD600, GraphPad Prism): 0.63 µM | MIC ([4]; OD600): 30 µM | MIC50 ([4]; OD600, GraphPad Prism): 7.314 µM | hemolytic activity to infected erythrocytes [5]: specifically lysed infected erythrocytes | survival number ([6]; single oral dose 100 mg/kg): 6 | Body weight Day0 ([6]; single oral dose 100 mg/kg): 20.45±1.56 | Body weight Day7 ([6]; single oral dose 100 mg/kg): 20.9±1.62 | Body weight Day14 ([6]; single oral dose 100 mg/kg): 21.98±0.91 | survival number ([6]; single oral dose 200 mg/kg): 6 | Body weight Day14 ([6]; single oral dose 200 mg/kg, P < 0.01 vs control): 18.4±2.1 | Body weight Day0 ([6]; single oral dose 200 mg/kg): 20.45±1.56 | Body weight Day7 ([6]; single oral dose 200 mg/kg): 19.25±1.8 | survival number ([6]; single oral dose 500 mg/kg, one mouse died on Day8): 5 | Body weight Day14 ([6]; single oral dose 500 mg/kg, P < 0.01 vs control): 16.54±3.24 | Body weight Day0 ([6]; single oral dose 500 mg/kg): 19.55±2.01 | CC50 (HEK293T cells): 57.33 µM | cytotoxicity to HEK293T cells (HEK293T cells): dose-dependently inhibited the cell viability | CC50 (HepG2 cells): 60.43 µM
